According to US12589101B2, “Cyclodextrin protein drug conjugates” (Regeneron Pharmaceuticals, Inc., priority 2017, dated 2026):
Converted amounts (≈) assume the structure as drawn. Where two headings read alike, the source gives them in different places. Square brackets hold non-standard residues; d marks the D form. Peptide text beside a SMILES is read from it. * marks the point of attachment. Dolaproine = CO[C@@H]([C@@H]1CCCN1)[C@@H](C)C(=O)O; Dil = CC[C@H](C)[C@H](NC)[C@@H](CC(=O)O)OC; X1 = C[C@@H](N*)[C@@H](O)c1ccccc1; NMeV = CN[C@H](C(=O)O)C(C)C

Tests used:
Human liver Cathepsin B = biological target: T1, Human liver Cathepsin B (Homo sapiens, UniProt P07858); assay: Cathepsin B cleavage assay, payload released (Example 73); type: biochemical; settings: 37° C., 50 μM substrate, pH 5
T1 construct: Human liver Cathepsin B (Athens Research & Technology, Cat #16-12-030102); purchased Athens Research & Technology 16-12-030102; host or cells: human liver
Protocol: To determine the effect on the cleavage efficiency on a steroid or LXR agonist payload when a cyclodextrin moiety was added in the linker, a Cathepsin B cleavage assay was performed. For the assay, the linker-payload stock solution (10 mM of linker-payload in DMSO) was added into a solution of 100 mM NaOAc, 10 mM dithiothreitol, at pH5 to obtain a 50 μM substrate solution. Human liver Cathepsin B (Athens Research & Technology, Cat #16-12-030102) in 50 mM NaOAc, 1 mM EDTA, at pH 5, was added to the substrate solution. The Cathepsin B and substrate solution was mixed with and without 10 mM of a Cathepsin B inhibitor (CA074; APE Bio, Cat #A1926), and incubated at 37° C. for 4 hours. Following the 4 hour incubation, acetic acid and then acetonitrile were added to stop the reaction. The quenched samples then underwent centrifugation at 14,000 rpm. Aliquots of the resultant supernatants were then diluted with equal volume of water and analyzed by LC/MS to determine the amount of payload released. The stability and activity of Cathepsin B was confirmed by incubating with 200 μM fluorogenic substrate for Cathepsin B (Santa Cruz Biotechnology, Cat #207975) (fluorescence at excitation of 340 nm/emission of 425 nm).

Cathepsin B = Cathepsin B (Homo sapiens, UniProt P07858); assay: Cathepsin B cleavage rate of linker-payloads (Example 66); type: biochemical; settings: for capB / CapB (%): Cathepsin B cleavage rate; for capB: Table 8A; for CapB (%): pH 5.0, 37° C.
Protocol: Step 1: Preparation of Cathepsin B buffer: 0.1 M NaOAc/0.01M DTT (pH5.0) Dissolve 8.3 g/L NaOAc, 1.54 g/L DTT in deionized water. Adjust pH to 5.0 with HCl/sodium hydroxide.
Step 2: Test Cleavage Rate
• 1. Prepare 25 μM of testing sample: To a 2-mL-tube was added 0.5 mg of testing sample, followed by the addition of 0.2 mL of DMSO. The solution was added dropwise into 0.8 mL of 0.1 M NaOAc/0.01 M DTT buffer. The obtained mixtures were sonicated for 5 minutes to obtain clear and colorless solutions. The pH value of the solution was around 5 according to pH test strip. • 2. Preheat assay buffer: 0.1 M NaOAc/0.01 M DTT (pH 5.0) • 3. Spiking solutions for test compounds: 25 μM Spiking solutions for test compounds: Add 2 μL of 5 mM stock solution into 398 μL of 0.1 M NaOAc/0.01 M DTT buffer (pH 5.0). • 4. Prepare 0.47 μg/μL Cathepsin B in 50 mM NaOAc/1 mM EDTA (pH 5.0). Put on ice. • 5. Without CA074 samples: Add 4 μL of 0.47 μg/μL Cathepsin B into 196 μL of 25 μM Spiking solutions (from step 2), incubate the tubes at 37° C. • 6. With CA074 samples: Add 4 μL of 0.47 μg/μL Cathepsin B with 4 μL of 10 mM Inhibitor (CA074) into 196 μL of 25 μM Spiking solutions (from step 2), incubate the tubes. • 7. After quenching, shake the plate and centrifuge them at 14000 rpm. • 8. Transfer 50 μL of the supernatant from each well into a 96-well sample plate containing 50 μL of ultra pure water (Millipore, ZMQS50F01) for LC/MS analysis. Step 3: Test reference compounds: • 9. Preheat assay buffer: 100 mM Na/K phosphate, pH 6.0, with 1.33 mM EDTA and 2 mM DTT. • 10. Prepare 0.024 μg/μL Cathepsin B: Add 1 μL of 0.47 μg/μL Cathepsin B stock into 19 μL of assay buffer (from step 11). • 11. Add 2 μL of 0.024 μg/μL Cathepsin B (from step 12) to a opaque 96-well plate. • 12. Add 96 μL of assay buffer to each sample. • 13. Add 2 μL of the 10 mM substrate Z-RR-MNA (200 μM final concentration). • 14. For negative control (With inhibitor), add 2 μL of 10 mM Inhibitor (CA074): Immediately read the samples in a kinetic mode at excitation of 340 nm/emission of 425 nm (Read the plate every 30 Second for 3 min). Step 4: Stability of Cathepsin B in incubation samples: • 15. Take 5 μL of incubation samples into 93 μL of assay buffer (from step 11), and then add 2 μL of 10 mM substrate (Z-RR-MNA). • 16. Incubate the samples at 37° C. for 2 min. • 17. Read the samples at excitation of 340 nm/emission of 425 nm.

[1] = Solubility of linker-payloads (LC-MS standard curve, saturated solution); type: physicochemical
Protocol: The following test assays the solubility of the linker-payloads with a cyclodextrin moiety and the linker-payloads without a cyclodextrin moiety.
The test compounds were dissolved in DMSO to build a standard curve using LC-MS method A or B. The test sample was dissolved in water and sonicated for 10 minutes, and then centrifuged. The upper clear solution was analyzed using the same method A or B and the solubility was calculated based on its peak area.
Detailed test procedures were as follows: • 1. […] 0.05 mg of compound was suspended in water (1 mL) and sonicated for 10 minutes. After centrifugation, the clear solution above was collected to provide the saturated sample solution. • 3. All the standard solutions A, B, C, D, E and sample solution were analyzed by LCMS (using the same method and same injection volume) to obtain the peak areas. • 4. Calculate the standard curve according to the data of A-D (X=concentration, Y=peak areas). • 5. Calculate to obtain the concentration of saturated sample solution according to the functions obtained above.

SKBR3 cells = assay: SKBR3 cytotoxicity assay (CellTiter-Glo); type: cell-based
Protocol: To assess the comparability of ADCs with and without CDs containing cytotoxic payloads, a cytotoxicity assay used SKBR3 cells. SKBR3 cells have been commonly used to assess aHer2 ADC activity. An aPRLR ADC has been used as a control mAb ADC in the SKBR3 cytotoxicity assay. For the assay, in vitro cytotoxicity of anti-Her2 ADCs or PRLR ADCs were evaluated using the CellTiter-Glo Assay Kit (Promega, Cat #G7573), in which the quantity of ATP present is used to determine the number of viable cells in culture. For the assay, SKBR3 cells were seeded at 6000 cells/well on Nunclon white 96 well plates in complete growth medium and grown overnight at 37° C. in 5% CO2. For cell viability curves, 1:4 serially diluted ADCs or free payload MMAE were added to the cells at concentrations starting at 100 nM including a no treatment control and were then incubated for 5 days. After the 5-day incubation, cells were incubated at room temperature with 100 μL of CellTiter-Glo reagents for 5 minutes. Relative luminescence units (RLU) were determined on a Victor plate reader (PerkinElmer). The IC50 values were determined from a four-parameter logistic equation over a 10-point response curve (GraphPad Prism). All curves and EC50 values were corrected for payload equivalents. All IC50s are expressed in nM concentration and percentage of cells killed (% kill) is reported for the highest concentration tested.

[2] = water, thermodynamic from solid, Aq. Solubility (mg/mL)
[3] = water, thermodynamic from solid, Solubility
[4] = water, thermodynamic from solid, Table 8A, read-out: Solubility
[5] = water, thermodynamic from solid, aqueous, read-out: Aq. Solubility

| Compound | Percent of payload released at 4 hrs (Human liver Cathepsin B) | Cathepsin B cleavage rate (Cathepsin B) [%] | capB (Cathepsin B) | CapB (%) (Cathepsin B) | Solubility ([1]; 10 min) [mg/ mL mg/mL] | solubility at 10 min [1, 2] [µg/mL] | solubility at 10 min [1, 3] [µg/mL] | Concentration (mM) of saturated solution ([1]; 10 min) [mM] | solubility thermodynamic at 10 min ([1]; water, thermodynamic from solid) [µg/mL] | solubility at 10 min [1, 4] [µg/mL] | solubility at 10 min [1, 5] [µg/mL] | solubility at 10 min ([1]; water, thermodynamic from solid, water, read-out: Solubility) [µg/mL] | EC50 (SKBR3 cells; Homo sapiens, SK-BR-3, 120 h) [nM] | % kill (SKBR3 cells; SKBR3 cells, 5 days, highest concentration tested) [%] |
| --- | --- | --- | --- | --- | --- | --- | --- | --- | --- | --- | --- | --- | --- | --- |
| CC(C)[C@H](NC(=O)CCOCCOCCOCCOCCNC(=O)CCC(=O)N1Cc2ccccc2C#Cc2ccccc21)C(=O)N[C@@H](C)C(=O)Nc1ccc2c(c1)[C@@]1(C)CCC[C@](C)(C(=O)NC(=O)[C@@]3(C)CCC[C@]4(C)c5cc(O)ccc5CC[C@@H]34)[C@@H]1CC2 [Ex48, 1-(4-{2-Azatricyclo[10.4.0.0^4,9]hexadeca-1(12),4(9),5,7,13,15-hexaen-10-yn-2-yl}-4-oxobutanamido)-N-[(1S)-1-{[(1 S)-1-{[(4bS,8S,8aR)-8-{[(1S,4aS,10aR)-6-hydroxy-1,4a-dimethyl-1,2,3,4,4a,9,10,10a-octahydrophenanthrene-1-carbonyl]carbamoyl}-4b,8-dimethyl-4b,5,6,7,8,8a,9,10-octahydrophenanthren-3-yl]carbamoyl}ethyl]carbamoyl}-2-methylpropyl]-3,6,9,12-tetraoxapentadecan-15-amide] | 13.6% | 62 | 13.6% | % (% ≤50 CapB (%)) | <0.1 | < 100 | < 100 | – | – | – | – | – | – | – |
| CC(C)[C@H](NC(=O)[C@@H](CCCCNC(=O)COC1CCCCCc2c1nnn2CC1OC2OC3C(CO)OC(OC4C(CO)OC(OC5C(CO)OC(OC6C(CO)OC(OC7C(CO)OC(OC1C(O)C2O)C(O)C7O)C(O)C6O)C(O)C5O)C(O)C4O)C(O)C3O)NC(=O)CCOCCOCCOCCOCCNC(=O)CCC(=O)N1Cc2ccccc2C#Cc2ccccc21)C(=O)N[C@@H](C)C(=O)Nc1ccc2c(c1)[C@@]1(C)CCC[C@](C)(C(=O)NC(=O)[C@@]3(C)CCC[C@]4(C)c5cc(O)ccc5CC[C@@H]34)[C@@H]1CC2 (stereo partly shown) [Ex49] | 38.5% | – | 38.5% [1] | % % (60< % % ≤70 CapB (%)) | 0.05 | 50 (≈ 19.8 µM) | 50 (≈ 19.8 µM) | 0.019 | 48 (≈ 19 µM) | – | – | – | – | – |
| CCCC1O[C@@H]2C[C@H]3[C@@H]4C[C@H](F)C5=CC(=O)C=C[C@]5(C)[C@@]4(F)[C@@H](O)C[C@]3(C)[C@]2(C(=O)CNC(=O)OCc2ccc(NC(=O)[C@H](CCCNC(N)=O)NC(=O)[C@@H](NC(=O)CCOCCOCCOCCOCCNC(=O)CCC(=O)N3Cc4ccccc4C#Cc4ccccc43)C(C)C)cc2)O1 (stereo partly shown) [Ex58, DIBAC-suc-PEG4-vcPAB-1h] | 7.5-17.2% | – | 20.8% | % (% ≤50 CapB (%)) | – | – | – | – | – | < 20 | < 20 | – | – | – |
| CCCC1O[C@@H]2C[C@H]3[C@@H]4C[C@H](F)C5=CC(=O)C=C[C@]5(C)[C@@]4(F)[C@@H](O)C[C@]3(C)[C@]2(C(=O)CNC(=O)OCc2ccc(NC(=O)[C@H](CCCNC(N)=O)NC(=O)[C@@H](NC(=O)[C@@H](CCCCNC(=O)COC3CCCCCc4c3nnn4CC3OC4OC5C(CO)OC(OC6C(CO)OC(OC7C(CO)OC(OC8C(CO)OC(OC9C(CO)OC(OC3C(O)C4O)C(O)C9O)C(O)C8O)C(O)C7O)C(O)C6O)C(O)C5O)NC(=O)CCOCCOCCOCCOCCNC(=O)CCC(=O)N3Cc4ccccc4C#Cc4ccccc43)C(C)C)cc2)O1 (stereo partly shown) [Ex59, DIBAC-suc-PEG4-dLys(COT-CD)-vcPAB-1h] | 28.9% | – | 29% | % (% ≤50 CapB (%)) | – | – | – | – | – | 26 (≈ 9.64 µM) | 26 (≈ 9.64 µM) | 26 (≈ 9.64 µM) | – | – |
| CC[C@H](C)[C@@H]([C@@H](CC(=O)N1CCC[C@H]1[C@H](OC)[C@@H](C)C(=O)N[C@H](C)[C@@H](O)c1ccccc1)OC)N(C)C(=O)[C@@H](NC(=O)[C@@H](NC)C(C)C)C(C)C [MMAE] (H-[NMeV]V[Dil][Dolaproine]-X1) | – | – | – | – | – | – | – | – | – | – | – | – | 0.19 | ≥90 |
